Activity calls are given as the source filed them. How the calls were made is not given here.
Test system: CCRIS mutagenicity, Ames/micronucleus/aberration tests
Assay: CCRIS mutagenicity studies
[1] = Test System: AMES SALMONELLA TYPHIMURIUM, Strain/Indicator: TA98, Metabolic Activation: NONE, Method: STANDARD PLATE
[2] = Test System: AMES SALMONELLA TYPHIMURIUM, Strain/Indicator: TA100, Metabolic Activation: NONE, Method: STANDARD PLATE
[3] = Test System: AMES SALMONELLA TYPHIMURIUM, Strain/Indicator: TA100, Metabolic Activation: RAT, LIVER, S-9, AROCLOR 1254, Method: STANDARD PLATE
[4] = Test System: AMES SALMONELLA TYPHIMURIUM, Strain/Indicator: TA98, Metabolic Activation: RAT, LIVER, S-9, AROCLOR 1254, Method: STANDARD PLATE
[5] = Test System: AMES SALMONELLA TYPHIMURIUM, Strain/Indicator: TA102, Metabolic Activation: NONE, Method: STANDARD PLATE
[6] = Test System: AMES SALMONELLA TYPHIMURIUM, Strain/Indicator: TA102, Metabolic Activation: RAT, LIVER, S-9, AROCLOR 1254, Method: STANDARD PLATE

Structure (SMILES): Nc1snc2ccc([N+](=O)[O-])cc12
- mutagenic call [1]: active; positive
- mutagenic call (Test System: AMES SALMONELLA TYPHIMURIUM, Strain/Indicator: TA98, Metabolic Activation: S-9, Method: STANDARD PLATE): active; positive
- mutagenic call [2]: active; positive
- mutagenic call (Test System: AMES SALMONELLA TYPHIMURIUM, Strain/Indicator: TA100, Metabolic Activation: S-9, Method: STANDARD PLATE): active; positive
- mutagenic call (Test System: AMES SALMONELLA TYPHIMURIUM, Strain/Indicator: TA1535, Metabolic Activation: NONE, Method: STANDARD PLATE): inactive; negative
- mutagenic call (Test System: AMES SALMONELLA TYPHIMURIUM, Strain/Indicator: TA1535, Metabolic Activation: S-9, Method: STANDARD PLATE): inactive; negative
- mutagenic call (Test System: AMES SALMONELLA TYPHIMURIUM, Strain/Indicator: TA1537, Metabolic Activation: NONE, Method: STANDARD PLATE): active; positive
- mutagenic call (Test System: AMES SALMONELLA TYPHIMURIUM, Strain/Indicator: TA1537, Metabolic Activation: S-9, Method: STANDARD PLATE): active; positive

Structure (SMILES): Cc1c2ccccc2cc2c1ccc1ccccc12
- mutagenic call (Test System: AMES SALMONELLA TYPHIMURIUM, Strain/Indicator: TA98, Method: STANDARD PLATE): active; positive
- mutagenic call (Test System: AMES SALMONELLA TYPHIMURIUM, Strain/Indicator: TA100, Metabolic Activation: RAT, INTACT HEPATOCYTES, AROCLOR 1254, Method: PREINCUBATION): active; positive
- mutagenic call [3]: active; positive
- mutagenic call (Test System: AMES SALMONELLA TYPHIMURIUM, Strain/Indicator: TA100, Metabolic Activation: RAT, LIVER, S-9, PHENOBARBITAL, Method: STANDARD PLATE): active; positive
- mutagenic call (Test System: AMES SALMONELLA TYPHIMURIUM, Strain/Indicator: TA100, Metabolic Activation: RAT, NADPH-FORTIFIED HOMOGENIZED HEPATOCYTES, AROCLOR 1254, Method: PREINCUBATION): active; positive
- mutagenic call (Test System: AMES SALMONELLA TYPHIMURIUM, Strain/Indicator: TA100, Metabolic Activation: RAT, SONICATED HEPATOCYTES, AROCLOR 1254, Method: PREINCUBATION): active; positive
- mutagenic call (Test System: AMES SALMONELLA TYPHIMURIUM, Strain/Indicator: TA100, Method: STANDARD PLATE): active; positive
- mutagenic call (Test System: CHINESE HAMSTER V-79, Strain/Indicator: V-79/8-AZAGUANINE, Metabolic Activation: CELL-MEDIATED, Method: STANDARD PLATE): active; positive
- mutagenic call (Test System: CHINESE HAMSTER V-79, Strain/Indicator: V-79/8-AZAGUANINE, Metabolic Activation: NONE, Method: STANDARD PLATE): active; positive
- mutagenic call (Test System: CHINESE HAMSTER V-79, Strain/Indicator: V-79/OUABAIN, Metabolic Activation: CELL-MEDIATED, Method: STANDARD PLATE): active; positive

Structure (SMILES): N#Cc1c(Cl)cccc1Cl
- mutagenic call (Test System: AMES SALMONELLA TYPHIMURIUM, Strain/Indicator: TA97, Metabolic Activation: NONE, Method: STANDARD PLATE): inactive; negative
- mutagenic call (Test System: AMES SALMONELLA TYPHIMURIUM, Strain/Indicator: TA97, Metabolic Activation: RAT, LIVER, S-9, AROCLOR 1254, Method: STANDARD PLATE): inactive; negative
- mutagenic call [1]: inactive; negative
- mutagenic call [4]: inactive; negative
- mutagenic call [2]: inactive; negative
- mutagenic call [3]: inactive; negative
- mutagenic call [5]: inactive; negative
- mutagenic call [6]: inactive; negative

Structure (SMILES): COCC=O
- mutagenic call (Test System: AMES SALMONELLA TYPHIMURIUM, Strain/Indicator: TA97A, Metabolic Activation: NONE, Method: STANDARD PLATE): active; positive
- mutagenic call (Test System: AMES SALMONELLA TYPHIMURIUM, Strain/Indicator: TA97A, Metabolic Activation: RAT, LIVER, S-9, AROCLOR 1254, Method: STANDARD PLATE): active; positive
- mutagenic call [1]: inactive; negative
- mutagenic call [4]: inactive; negative
- mutagenic call [2]: inactive; negative
- mutagenic call [3]: inactive; negative
- mutagenic call [5]: inactive; negative
- mutagenic call [6]: inactive; negative
- mutagenic call (Test System: CHINESE HAMSTER OVARY, Strain/Indicator: CHO AS52 (GPT)/6-THIOGUANINE, Metabolic Activation: NONE): active; positive
- mutagenic call (Test System: CHINESE HAMSTER OVARY, Strain/Indicator: CHO-AS52/6-THIOGUANINE, Metabolic Activation: NONE): active; positive
- mutagenic call (Test System: CHINESE HAMSTER OVARY, Strain/Indicator: CHO-K1-BH4 (HGPRT)/6-THIOGUANINE, Metabolic Activation: NONE): inactive; negative
- mutagenic call (Test System: CHINESE HAMSTER OVARY, Strain/Indicator: CHO-K1-BH4 (HGPRT)/6-THIOGUANINE, Metabolic Activation: RAT, LIVER, S-9, AROCLOR 1254): inactive; negative
- mutagenic call (Test System: CHINESE HAMSTER V-79, Strain/Indicator: V-79 (HPRT)/6-THIOGUANINE, Metabolic Activation: NONE): active; positive

Structure (SMILES): COC(F)(F)C(Cl)Cl
- mutagenic call (Test System: AMES SALMONELLA TYPHIMURIUM, Strain/Indicator: TA97, Metabolic Activation: HAMSTER, LIVER, S-9, AROCLOR 1254 (10 OR 30%), Method: PREINCUBATION): inactive; negative
- mutagenic call (Test System: AMES SALMONELLA TYPHIMURIUM, Strain/Indicator: TA97, Metabolic Activation: NONE, Method: PREINCUBATION): inactive; negative
- mutagenic call (Test System: AMES SALMONELLA TYPHIMURIUM, Strain/Indicator: TA97, Metabolic Activation: RAT, LIVER, S-9, AROCLOR 1254 (10 OR 30%), Method: PREINCUBATION): inactive; negative
- mutagenic call (Test System: AMES SALMONELLA TYPHIMURIUM, Strain/Indicator: TA98, Metabolic Activation: HAMSTER, LIVER, S-9, AROCLOR 1254 (10 OR 30%), Method: PREINCUBATION): inactive; negative
- mutagenic call (Test System: AMES SALMONELLA TYPHIMURIUM, Strain/Indicator: TA98, Metabolic Activation: HAMSTER, LIVER, S-9, AROCLOR 1254 (30%), Method: DESICCATOR): inactive; negative
- mutagenic call (Test System: AMES SALMONELLA TYPHIMURIUM, Strain/Indicator: TA98, Metabolic Activation: NONE, Method: DESICCATOR): inactive; negative
- mutagenic call (Test System: AMES SALMONELLA TYPHIMURIUM, Strain/Indicator: TA98, Metabolic Activation: NONE, Method: PREINCUBATION): inactive; negative
- mutagenic call (Test System: AMES SALMONELLA TYPHIMURIUM, Strain/Indicator: TA98, Metabolic Activation: RAT, LIVER, S-9, AROCLOR 1254 (10 OR 30%), Method: PREINCUBATION): inactive; negative
- mutagenic call (Test System: AMES SALMONELLA TYPHIMURIUM, Strain/Indicator: TA98, Metabolic Activation: RAT, LIVER, S-9, AROCLOR 1254 (30%), Method: DESICCATOR): inactive; negative
- mutagenic call (Test System: AMES SALMONELLA TYPHIMURIUM, Strain/Indicator: TA100, Metabolic Activation: HAMSTER, LIVER, S-9, AROCLOR 1254 (10 OR 30%), Method: PREINCUBATION): inactive; negative
- mutagenic call (Test System: AMES SALMONELLA TYPHIMURIUM, Strain/Indicator: TA100, Metabolic Activation: HAMSTER, LIVER, S-9, AROCLOR 1254 (30%), Method: DESICCATOR): inactive; negative
- mutagenic call (Test System: AMES SALMONELLA TYPHIMURIUM, Strain/Indicator: TA100, Metabolic Activation: NONE, Method: DESICCATOR): inactive; negative
- mutagenic call (Test System: AMES SALMONELLA TYPHIMURIUM, Strain/Indicator: TA100, Metabolic Activation: NONE, Method: PREINCUBATION): inactive; negative
- mutagenic call (Test System: AMES SALMONELLA TYPHIMURIUM, Strain/Indicator: TA100, Metabolic Activation: RAT, LIVER, S-9, AROCLOR 1254 (10 OR 30%), Method: PREINCUBATION): inactive; negative
- mutagenic call (Test System: AMES SALMONELLA TYPHIMURIUM, Strain/Indicator: TA100, Metabolic Activation: RAT, LIVER, S-9, AROCLOR 1254 (30%), Method: DESICCATOR): inactive; negative
- mutagenic call (Test System: AMES SALMONELLA TYPHIMURIUM, Strain/Indicator: TA1535, Metabolic Activation: HAMSTER, LIVER, S-9, AROCLOR 1254 (10 OR 30%), Method: PREINCUBATION): inactive; negative
- mutagenic call (Test System: AMES SALMONELLA TYPHIMURIUM, Strain/Indicator: TA1535, Metabolic Activation: NONE, Method: PREINCUBATION): inactive; negative
- mutagenic call (Test System: AMES SALMONELLA TYPHIMURIUM, Strain/Indicator: TA1535, Metabolic Activation: RAT, LIVER, S-9, AROCLOR 1254 (10 OR 30%), Method: PREINCUBATION): inactive; negative

Structure (SMILES): CCCN=NC(C)(C)OO
- mutagenic call (Test System: AMES SALMONELLA TYPHIMURIUM, Strain/Indicator: TA1535, Metabolic Activation: NONE): active; positive
- mutagenic call (Test System: E. COLI, Strain/Indicator: WP2 (HCR-), Metabolic Activation: NONE): active; positive

Structure (SMILES): Cc1cccc2c1-c1ccccc1C2C (stereo unspecified)
- mutagenic call [4]: active; positive
- mutagenic call [3]: active; positive

Reference: PubChem BioAssay AID1259407 (Chemical Carcinogenesis Research Information System (CCRIS), 2018)
